Measured values reported in ChEMBL document CHEMBL2331330, “Substituted piperidinyl glycinyl 2-cyano-4,5-methano pyrrolidines as potent and stable dipeptidyl peptidase IV inhibitors” (Bioorg Med Chem Lett, 2013).

Tests used:
[1] = target: Dipeptidyl peptidase 4 (Homo sapiens, UniProt P27487); experiment: Inhibition of human DPP4 using gly-pro-para-nitroanilide as substrate
[2] = Degradation half life of the compound at 50 mM at pH 7.2; format: physicochemical; details: buffer
[3] = Degradation half life of the compound at 30 mM at pH 7.2; format: physicochemical; details: buffer
[4] = Degradation half life of the compound at 10 mM at pH 7.2; format: physicochemical; details: buffer

Chain of Dipeptidyl peptidase 4 (P27487 whole entry): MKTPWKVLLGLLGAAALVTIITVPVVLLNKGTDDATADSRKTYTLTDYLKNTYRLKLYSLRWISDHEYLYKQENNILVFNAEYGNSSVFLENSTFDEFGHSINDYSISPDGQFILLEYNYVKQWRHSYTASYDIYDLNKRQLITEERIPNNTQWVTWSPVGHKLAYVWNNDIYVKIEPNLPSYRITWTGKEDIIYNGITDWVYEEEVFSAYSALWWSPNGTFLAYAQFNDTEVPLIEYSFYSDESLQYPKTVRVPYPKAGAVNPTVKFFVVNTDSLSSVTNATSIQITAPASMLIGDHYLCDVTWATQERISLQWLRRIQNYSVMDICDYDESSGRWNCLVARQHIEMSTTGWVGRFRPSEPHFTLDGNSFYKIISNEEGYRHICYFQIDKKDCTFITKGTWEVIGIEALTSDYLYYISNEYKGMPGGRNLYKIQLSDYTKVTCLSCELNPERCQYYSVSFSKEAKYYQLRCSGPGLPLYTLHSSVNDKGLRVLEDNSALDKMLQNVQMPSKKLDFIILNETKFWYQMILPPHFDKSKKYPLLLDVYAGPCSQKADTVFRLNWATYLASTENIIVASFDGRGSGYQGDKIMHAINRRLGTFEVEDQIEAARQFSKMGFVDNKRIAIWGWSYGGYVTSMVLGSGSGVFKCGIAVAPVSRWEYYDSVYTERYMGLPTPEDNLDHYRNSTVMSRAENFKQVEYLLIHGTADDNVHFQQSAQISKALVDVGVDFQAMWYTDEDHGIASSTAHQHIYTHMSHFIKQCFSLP

SMILES | Ki [1] [nM] | half-life at 50000 µM [2] [h] | half-life at 30000 µM [3] [h] | half-life at 10000 µM [4] [h]
N#C[C@@H]1C[C@@H]2C[C@@H]2N1C(=O)[C@@H](N)C1CCN(S(=O)(=O)c2cccc3ccccc23)CC1 | 13 | – | – | –
CCC1([C@H](N)C(=O)N2[C@H](C#N)C[C@@H]3C[C@@H]32)CCN(C(=O)CC(C)(C)C)CC1 | – | 192 | 245 | 473
N#C[C@@H]1C[C@@H]2C[C@@H]2N1C(=O)[C@@H](N)C1CCN(C(=O)Cc2ccccc2)CC1 | 18 | – | – | –
CC(C)(C)CC(=O)N1CCC([C@H](N)C(=O)N2[C@H](C#N)C[C@@H]3C[C@@H]32)CC1 | – | 38.4 | 38.4 | 48
